Test results published in ChEMBL document CHEMBL5465560, “Selectivity Literature for EUbOPEN Chemogenomic Library” (2024).

Assays:
[1] = molecular target: Ribosomal protein S6 kinase beta-2 (Homo sapiens) (UniProt Q9UBS0); assay: Selectivity interaction (Kinase panel (Z-LYTE Assay)) EUB0001632a RPS6KB2; conditions: at 10 µM
[2] = system: ALK tyrosine kinase receptor (Homo sapiens), Q9UM73 [R1275Q]; assay: (§1) Selectivity interaction (ProQinase) EUB0000171b ALK
[3] = system: ALK tyrosine kinase receptor (Homo sapiens), Q9UM73 [L1196M]; assay: as §1
ALK tyrosine kinase receptor (Homo sapiens), Q9UM73 [L1196M], sequence (Q9UM73 whole entry L1196M, looked up): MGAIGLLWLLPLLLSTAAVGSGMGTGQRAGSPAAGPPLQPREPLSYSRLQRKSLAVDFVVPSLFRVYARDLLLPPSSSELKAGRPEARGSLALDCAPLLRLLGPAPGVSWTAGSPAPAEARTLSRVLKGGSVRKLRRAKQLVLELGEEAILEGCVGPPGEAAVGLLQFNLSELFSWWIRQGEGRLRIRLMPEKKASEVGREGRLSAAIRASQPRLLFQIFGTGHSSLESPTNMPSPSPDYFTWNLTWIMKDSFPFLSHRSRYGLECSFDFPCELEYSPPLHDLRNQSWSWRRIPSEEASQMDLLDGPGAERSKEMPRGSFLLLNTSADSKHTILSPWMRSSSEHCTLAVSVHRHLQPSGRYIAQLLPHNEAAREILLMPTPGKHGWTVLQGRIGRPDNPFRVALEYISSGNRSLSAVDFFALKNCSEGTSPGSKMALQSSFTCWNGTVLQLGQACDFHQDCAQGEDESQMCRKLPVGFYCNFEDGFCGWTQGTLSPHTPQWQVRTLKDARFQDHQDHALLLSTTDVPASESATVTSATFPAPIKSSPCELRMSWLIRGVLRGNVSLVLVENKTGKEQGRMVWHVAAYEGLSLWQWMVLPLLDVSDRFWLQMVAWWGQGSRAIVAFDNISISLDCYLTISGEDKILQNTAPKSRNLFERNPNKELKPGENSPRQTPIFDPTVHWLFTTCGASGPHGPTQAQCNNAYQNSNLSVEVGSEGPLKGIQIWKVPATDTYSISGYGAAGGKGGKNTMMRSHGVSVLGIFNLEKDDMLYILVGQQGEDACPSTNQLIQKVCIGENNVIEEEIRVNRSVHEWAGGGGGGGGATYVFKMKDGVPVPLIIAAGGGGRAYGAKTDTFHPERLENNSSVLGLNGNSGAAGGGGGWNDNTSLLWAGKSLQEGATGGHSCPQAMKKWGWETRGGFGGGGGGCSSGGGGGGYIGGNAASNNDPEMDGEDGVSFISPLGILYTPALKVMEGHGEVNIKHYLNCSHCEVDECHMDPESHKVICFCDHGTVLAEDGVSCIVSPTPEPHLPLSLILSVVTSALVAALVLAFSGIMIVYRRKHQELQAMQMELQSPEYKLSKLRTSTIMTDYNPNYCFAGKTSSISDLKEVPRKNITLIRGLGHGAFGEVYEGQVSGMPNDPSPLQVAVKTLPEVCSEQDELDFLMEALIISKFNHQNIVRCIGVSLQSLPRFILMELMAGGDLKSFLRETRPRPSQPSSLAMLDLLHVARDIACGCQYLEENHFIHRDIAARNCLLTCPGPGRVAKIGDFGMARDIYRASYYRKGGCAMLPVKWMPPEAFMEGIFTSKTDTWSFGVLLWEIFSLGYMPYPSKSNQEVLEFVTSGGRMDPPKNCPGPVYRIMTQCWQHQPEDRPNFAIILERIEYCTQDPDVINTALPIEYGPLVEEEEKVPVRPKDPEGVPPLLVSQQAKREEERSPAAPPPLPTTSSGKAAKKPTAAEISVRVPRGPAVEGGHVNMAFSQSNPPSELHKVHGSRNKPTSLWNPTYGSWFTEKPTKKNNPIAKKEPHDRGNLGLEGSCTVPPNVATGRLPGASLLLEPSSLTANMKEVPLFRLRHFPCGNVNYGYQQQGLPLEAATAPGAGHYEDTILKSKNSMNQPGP

[4] = molecular target: T1, Prostaglandin G/H synthase 2 (Homo sapiens) (UniProt P35354); assay: Selectivity interaction (Safety Panel 44tm (Eurofins)) EUB0000162b PTGS2; conditions: at 10 µM
T1 sequence (whole entry): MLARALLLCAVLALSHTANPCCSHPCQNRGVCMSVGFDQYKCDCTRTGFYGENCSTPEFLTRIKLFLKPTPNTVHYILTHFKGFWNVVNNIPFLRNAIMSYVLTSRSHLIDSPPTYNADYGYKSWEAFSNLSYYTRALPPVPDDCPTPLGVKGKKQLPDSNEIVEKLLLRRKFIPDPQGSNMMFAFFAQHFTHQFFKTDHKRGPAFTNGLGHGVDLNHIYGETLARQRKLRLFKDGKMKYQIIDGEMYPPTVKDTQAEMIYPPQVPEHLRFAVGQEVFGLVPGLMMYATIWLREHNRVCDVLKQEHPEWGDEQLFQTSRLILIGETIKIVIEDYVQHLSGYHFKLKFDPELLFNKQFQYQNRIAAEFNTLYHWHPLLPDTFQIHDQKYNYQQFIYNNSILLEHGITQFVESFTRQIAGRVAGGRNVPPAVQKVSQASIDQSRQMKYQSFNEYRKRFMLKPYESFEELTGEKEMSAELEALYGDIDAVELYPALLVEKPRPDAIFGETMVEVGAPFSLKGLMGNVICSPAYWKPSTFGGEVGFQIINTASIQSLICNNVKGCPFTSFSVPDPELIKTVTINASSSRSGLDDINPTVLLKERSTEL

[5] = molecular target: T2, Dual serine/threonine and tyrosine protein kinase (Homo sapiens) (UniProt Q6XUX3); assay: Selectivity interaction (KinomeScan (DiscoverX)) EUB0000595a DSTYK; conditions: at 10 µM
T2 sequence (whole entry): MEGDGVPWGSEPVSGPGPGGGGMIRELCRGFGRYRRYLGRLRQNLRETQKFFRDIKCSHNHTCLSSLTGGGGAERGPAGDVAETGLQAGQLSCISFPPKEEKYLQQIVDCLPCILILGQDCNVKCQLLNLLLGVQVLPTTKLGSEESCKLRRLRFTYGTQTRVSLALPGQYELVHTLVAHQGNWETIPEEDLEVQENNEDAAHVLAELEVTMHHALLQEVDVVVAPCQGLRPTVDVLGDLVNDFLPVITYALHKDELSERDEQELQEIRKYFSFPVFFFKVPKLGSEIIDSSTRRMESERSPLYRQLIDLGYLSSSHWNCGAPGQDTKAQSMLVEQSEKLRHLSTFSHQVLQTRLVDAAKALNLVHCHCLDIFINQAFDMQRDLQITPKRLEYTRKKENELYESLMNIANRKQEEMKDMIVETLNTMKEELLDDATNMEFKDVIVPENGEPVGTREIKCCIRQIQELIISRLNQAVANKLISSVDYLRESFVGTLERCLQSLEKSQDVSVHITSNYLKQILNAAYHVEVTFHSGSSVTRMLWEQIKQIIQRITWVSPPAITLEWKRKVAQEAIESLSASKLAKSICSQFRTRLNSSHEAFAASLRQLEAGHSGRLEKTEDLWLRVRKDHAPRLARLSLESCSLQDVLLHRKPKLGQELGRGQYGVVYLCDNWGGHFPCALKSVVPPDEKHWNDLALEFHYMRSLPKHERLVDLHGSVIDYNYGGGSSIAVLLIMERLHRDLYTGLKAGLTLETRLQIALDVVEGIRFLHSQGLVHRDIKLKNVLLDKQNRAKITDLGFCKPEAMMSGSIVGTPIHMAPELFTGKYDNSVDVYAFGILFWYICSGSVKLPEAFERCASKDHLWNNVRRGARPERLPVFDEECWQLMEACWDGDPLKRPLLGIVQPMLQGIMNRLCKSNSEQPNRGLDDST

[6] = molecular target: Phosphatidylinositol 4-phosphate 5-kinase type-1 gamma (Homo sapiens) (UniProt O60331); assay: Selectivity interaction (Ambit KINOMEscan and KiNATiv profiling in Jurkat cells) EUB0000090b PIP5K1C; format: cell-based; conditions: at 1 µM
Phosphatidylinositol 4-phosphate 5-kinase type-1 gamma (Homo sapiens), sequence (O60331 whole entry): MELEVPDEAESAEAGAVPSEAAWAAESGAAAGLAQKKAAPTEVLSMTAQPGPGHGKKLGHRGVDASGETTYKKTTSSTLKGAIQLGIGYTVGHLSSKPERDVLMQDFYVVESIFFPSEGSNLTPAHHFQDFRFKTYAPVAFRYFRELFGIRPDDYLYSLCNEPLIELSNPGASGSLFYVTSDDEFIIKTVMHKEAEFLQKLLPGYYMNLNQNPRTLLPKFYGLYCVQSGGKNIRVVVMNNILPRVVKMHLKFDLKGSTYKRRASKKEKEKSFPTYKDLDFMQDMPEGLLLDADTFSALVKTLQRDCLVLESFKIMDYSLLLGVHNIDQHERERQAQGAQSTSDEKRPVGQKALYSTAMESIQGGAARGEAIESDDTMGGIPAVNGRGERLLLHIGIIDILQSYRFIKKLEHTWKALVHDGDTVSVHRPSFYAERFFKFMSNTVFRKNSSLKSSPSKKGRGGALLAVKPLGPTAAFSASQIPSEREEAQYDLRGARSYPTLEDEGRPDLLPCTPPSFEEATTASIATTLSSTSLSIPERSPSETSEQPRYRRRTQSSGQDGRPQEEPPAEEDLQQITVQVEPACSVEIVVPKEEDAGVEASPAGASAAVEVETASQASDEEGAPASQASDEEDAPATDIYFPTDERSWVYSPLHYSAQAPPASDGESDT

[7] = molecular target: T3, Mitogen-activated protein kinase kinase kinase 13 (Homo sapiens) (UniProt O43283); assay: Selectivity interaction (KinomeScan (DiscoverX)) EUB0000655a MAP3K13; conditions: at 10 µM
T3 sequence (whole entry): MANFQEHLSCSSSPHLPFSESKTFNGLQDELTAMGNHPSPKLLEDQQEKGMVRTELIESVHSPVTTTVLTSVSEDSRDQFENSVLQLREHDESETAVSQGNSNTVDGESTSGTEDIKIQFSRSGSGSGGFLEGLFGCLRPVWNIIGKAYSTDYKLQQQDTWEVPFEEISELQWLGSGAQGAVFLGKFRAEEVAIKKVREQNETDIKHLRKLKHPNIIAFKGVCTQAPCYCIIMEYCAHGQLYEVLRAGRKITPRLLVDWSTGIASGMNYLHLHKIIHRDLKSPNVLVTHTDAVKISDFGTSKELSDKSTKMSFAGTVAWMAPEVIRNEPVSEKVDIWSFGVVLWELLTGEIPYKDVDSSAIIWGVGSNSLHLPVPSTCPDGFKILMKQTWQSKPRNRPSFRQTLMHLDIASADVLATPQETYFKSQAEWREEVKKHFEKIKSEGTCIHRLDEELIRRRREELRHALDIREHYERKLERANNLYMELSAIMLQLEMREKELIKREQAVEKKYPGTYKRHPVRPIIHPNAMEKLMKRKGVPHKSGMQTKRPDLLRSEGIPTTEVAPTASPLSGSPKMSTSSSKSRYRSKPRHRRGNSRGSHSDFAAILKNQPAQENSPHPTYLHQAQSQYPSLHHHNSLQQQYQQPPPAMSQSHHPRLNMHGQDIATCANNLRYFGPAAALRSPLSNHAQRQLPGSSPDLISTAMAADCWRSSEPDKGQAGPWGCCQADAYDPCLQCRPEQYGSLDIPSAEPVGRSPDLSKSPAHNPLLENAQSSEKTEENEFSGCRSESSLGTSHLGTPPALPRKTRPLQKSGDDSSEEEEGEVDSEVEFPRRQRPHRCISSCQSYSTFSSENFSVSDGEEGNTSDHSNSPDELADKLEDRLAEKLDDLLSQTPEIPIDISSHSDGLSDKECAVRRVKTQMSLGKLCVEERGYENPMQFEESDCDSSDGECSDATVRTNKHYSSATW

[8] = molecular target: Receptor tyrosine-protein kinase erbB-2 (Homo sapiens, UniProt P04626); assay: Selectivity interaction (KinomeScan (DiscoverX)) EUB0000045b ERBB2
Receptor tyrosine-protein kinase erbB-2, sequence (P04626 whole entry): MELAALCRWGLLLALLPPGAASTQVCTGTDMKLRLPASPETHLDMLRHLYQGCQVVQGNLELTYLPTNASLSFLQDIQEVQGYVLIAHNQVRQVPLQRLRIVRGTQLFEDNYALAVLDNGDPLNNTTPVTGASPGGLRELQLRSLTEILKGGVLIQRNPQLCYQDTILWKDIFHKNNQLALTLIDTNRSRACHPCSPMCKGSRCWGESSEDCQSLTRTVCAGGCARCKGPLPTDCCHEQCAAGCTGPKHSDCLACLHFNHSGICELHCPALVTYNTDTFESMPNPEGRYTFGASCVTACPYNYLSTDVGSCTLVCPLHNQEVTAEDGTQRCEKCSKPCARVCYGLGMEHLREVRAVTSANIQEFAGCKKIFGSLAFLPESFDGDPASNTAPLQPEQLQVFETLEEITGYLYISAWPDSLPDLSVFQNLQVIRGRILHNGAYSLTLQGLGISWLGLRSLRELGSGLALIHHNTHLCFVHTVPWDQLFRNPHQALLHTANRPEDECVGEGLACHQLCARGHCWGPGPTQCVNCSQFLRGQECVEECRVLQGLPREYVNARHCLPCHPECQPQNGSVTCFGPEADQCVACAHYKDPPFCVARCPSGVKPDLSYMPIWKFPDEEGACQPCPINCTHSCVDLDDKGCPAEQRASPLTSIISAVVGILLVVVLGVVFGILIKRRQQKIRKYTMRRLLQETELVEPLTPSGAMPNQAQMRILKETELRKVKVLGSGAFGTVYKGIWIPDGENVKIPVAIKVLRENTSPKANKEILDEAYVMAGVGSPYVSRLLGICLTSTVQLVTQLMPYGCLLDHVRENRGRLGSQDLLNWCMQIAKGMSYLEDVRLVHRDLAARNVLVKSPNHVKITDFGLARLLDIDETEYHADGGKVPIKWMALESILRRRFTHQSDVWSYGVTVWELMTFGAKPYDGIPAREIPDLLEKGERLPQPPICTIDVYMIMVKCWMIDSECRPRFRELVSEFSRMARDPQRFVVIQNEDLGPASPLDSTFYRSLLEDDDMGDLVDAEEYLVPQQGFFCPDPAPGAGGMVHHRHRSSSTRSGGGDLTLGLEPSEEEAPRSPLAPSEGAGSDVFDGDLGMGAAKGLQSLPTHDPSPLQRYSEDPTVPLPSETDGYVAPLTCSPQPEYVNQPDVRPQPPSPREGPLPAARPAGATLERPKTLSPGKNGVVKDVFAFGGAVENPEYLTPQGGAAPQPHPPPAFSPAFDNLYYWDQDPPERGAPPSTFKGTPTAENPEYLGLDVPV

[9] = molecular target: Serine/threonine-protein kinase WNK3 (Homo sapiens) (UniProt Q9BYP7); assay: Selectivity interaction (KinomeScan (DiscoverX)) EUB0000229b WNK3; conditions: at 10 µM

ALK tyrosine kinase receptor (Homo sapiens), Q9UM73 [R1275Q], sequence (Q9UM73 whole entry R1275Q): as the sequence (Q9UM73 whole entry L1196M, looked up) above, with M1196L, R1275Q counted along it
Ribosomal protein S6 kinase beta-2 (Homo sapiens), sequence (Q9UBS0 whole entry): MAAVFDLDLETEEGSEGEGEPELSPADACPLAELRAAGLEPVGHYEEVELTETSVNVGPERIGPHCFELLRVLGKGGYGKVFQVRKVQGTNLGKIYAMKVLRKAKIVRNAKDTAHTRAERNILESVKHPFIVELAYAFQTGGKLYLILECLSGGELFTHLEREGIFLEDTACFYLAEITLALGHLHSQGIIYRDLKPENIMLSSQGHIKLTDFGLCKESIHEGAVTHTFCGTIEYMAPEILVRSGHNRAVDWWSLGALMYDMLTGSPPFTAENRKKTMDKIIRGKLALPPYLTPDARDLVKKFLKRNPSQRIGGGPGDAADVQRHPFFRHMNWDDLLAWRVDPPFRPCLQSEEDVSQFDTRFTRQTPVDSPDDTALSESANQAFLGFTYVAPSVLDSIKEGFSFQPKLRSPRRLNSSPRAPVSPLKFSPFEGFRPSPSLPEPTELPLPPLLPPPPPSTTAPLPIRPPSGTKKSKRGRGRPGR

In the case of `Cn1cc(-n2cnc3c(NCc4nc5cc(Cl)c(Cl)cc5[nH]4)nc(N4CCOCC4)nc32)cn1`, the % of control [1] is reported as 3.53%.

For `C=CC(=O)Nc1cccc(C(=O)Nc2ccc(Nc3cc(-c4[nH]c(SC)nc4C)ccn3)cc2)c1`, the % of control ([2]; at 1 µM) was 85%, the % of control ([2]; at 5 µM) was 73% and the % of control ([3]; at 1 µM) was 72%. For the same molecule, the % of control ([3]; at 5 µM) was 55%.

`CN(C)C(=O)Cn1cc(-c2ccc(-c3cncc4ccccc34)cc2)cn1` gave a % of control [4] of 81%.

For `COCC(=O)NC/C=C/c1ccc2ncnc(Nc3ccc(Oc4ccc(C)nc4)c(C)c3)c2c1` [CP-724714], the % of control [5] was 75%.

Work on `CN(C)C/C=C/C(=O)Nc1ccc(C(=O)N2CCCC(Nc3ncc(Cl)c(-c4c[nH]c5ccccc45)n3)C2)cc1` (configuration not stated) yielded a % of control [6] of 100%.

`CN(C)CCOc1ccc(-c2nc(-c3ccncc3)c(-c3ccc4c(c3)CC/C4=N\O)[nH]2)cc1` was tested, and the % of control [7] was 100%.

`C=CC(=O)Nc1cc(-n2c(=O)ccc3cnc4ccc(-c5ccc(NS(C)(=O)=O)cc5)cc4c32)ccc1C` was tested, and the % of control ([8]; at 1 µM) was 90% and the % of control ([8]; at 10 µM) was 26%.

For `COc1cc(N(C)c2ccnc3ccc(C(F)(F)F)cc23)cc(OC)c1OC`, the % binding [9] was 80%.
